From patent publication US7582786B2, “Synthetic catalytic free radical scavengers useful as antioxidants for prevention and therapy of disease” (Eukarion Inc., priority 1996, dated 2009)

What was measured:
[1] = Catalase activity, conversion of H2O2 to oxygen, polarographic oxygen electrode (Example 2); format: biochemical
Procedure, shortened: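 Clark-type oxygen electrode at 25 °C in 50 mM sodium phosphate pH 8.1, 0.9% NaCl, with 10 μM salen-manganese complex and 10 mM H2O2. Initial rates from slope of first ~5 s, corrected for H2O2-alone rate; endpoint O2 as maximal minus pre-substrate baseline.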

[2] = Peroxidase activity, H2O2-dependent oxidation of ABTS (Example 2); format: biochemical; conditions: for Peroxidase rate: 10 μM salen manganese complex, 0.2 mM H2O2; for Peroxidase: relative to C7 (C7 = 100)
Procedure, shortened: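 ABTS oxidation by salen manganese complex (10 μM) with 0.2 mM H2O2 in 50 mM sodium phosphate pH 8.1 (or pH 6.0/7.1 where indicated), 0.9% NaCl, 0.5 mM ABTS, 27±0.2 °C. Oxidized ABTS read spectrophotometrically at 740 or 500 nm and quantified from Δε740 20,300 or Δε500 3400 M^−1cm^−1.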

dopaminergic neurons = experiment: MPTP mouse model of Parkinson's disease (mazindol binding); format: in vivo
Method: Neuronal damage was induced in mice by injection with MPTP as described in Example 1. Where indicated, mice were also treated with intraperitoneal injections of C40 at 0.02 or 0.2 mg/kg. The integrity of the nigrostriatal dopaminergic neurons was assessed based upon ^3H-Mazindol binding to striatal membranes harvested from the brains of these mice about 1 week after MPTP administration.
The experiment was performed over a 7 day period. […] The animals were sacrificed after 7 days.

Rats = experiment: Rat model for myocardial infarct (permanent coronary occlusion); format: in vivo; conditions: intravenous bolus immediately prior to surgery, 48 hr recovery
Method: Rats were subjected to permanent regional cardiac ischemia by surgical occlusion of the left coronary artery. […] Sham-operated rats were subjected to surgery but the suture was not tied on the coronary artery. After a 48 hr recovery period, cardiac functional parameters were measured with a Millar transducing catheter implanted into the left ventricle.

[3] = test system: Human dermal fibroblasts (HF cells); experiment: Cell protection assay, glucose/glucose oxidase toxicity, XTT; format: cell-based; conditions: for protection against glucose and glucose oxidase: glucose oxidase 0.019 units/ml
Procedure, shortened: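 Confluent HF fibroblasts (passage 5–6) were incubated 18 h at 37 °C with test compounds plus glucose oxidase (0.019 units/ml) in DMEM containing 4.5 g/l glucose, a reproducibly lethal level. Viability was read by XTT after 2 h as absorbance at 490 nm (reference 655 nm), relative to untreated and cell-free blanks.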

[4] = 10 μM salen manganese complex, 10 mM H2O2

Compound | catalase activity (in words) [1] | catalase turnovers completed ([1]; 10 μM C7, ~1 mM H2O2) | Catalase rate [1, 4] [μM O2/min] | Endpoint [1, 4] [maximal μM O2] | Catalase endpt. ([1]; relative to C7 (C7 = 100)) | Catalase rate ([1]; relative to C7 (C7 = 100)) | peroxidase activity (in words) [2] | ABTS oxidized ([2]; 10 μM C7, 1 mM H2O2, pH 8.1) | peroxidase turnovers ([2]; 10 μM C7, 1 mM H2O2, pH 8.1) | Peroxidase rate [2] [μM ABTS oxidized/min] | Peroxidase [2] | toxicity, adverse health effects (dopaminergic neurons; 7 day test period) | number of surviving dopaminergic neurons in MPTP-treated mice (dopaminergic neurons; C7 33 mg/kg i.p. pretreatment, MPTP 40 mg/kg days 1 and 2) | number of dopaminergic neurons, C7 alone (dopaminergic neurons; C7 alone) | protection, left ventricular diastolic pressure (Rats) | turnovers before the catalase reaction ceased ([1]; 10 μM complex, 10 mM H2O2) | protection against glucose and glucose oxidase (in words) [3] | protection against glucose and glucose oxidase ([3]; 40 μM) | protection against glucose and glucose oxidase ([3]; 80 μM) | protection of dopaminergic neurons (3H-Mazindol binding to striatal membranes) (dopaminergic neurons; C40 0.02 or 0.2 mg/kg intraperitoneal)
[Cl][Mn]1[O]c2ccccc2C=NCCN=Cc2ccccc2[O]1 [Compound C7] | exhibits catalase activity | no more than a single turnover | 148.6 ± 33.5 | 32.3 ± 1.2 | 100 | 100 | exhibits peroxidase activity | up to 88 μM | over 8 turnovers | 20.0 ± 0.5 | 100 | absence of adverse health effects | approximately doubled | not adversely affected | protection | – | – | – | – | –
COc1cccc2c1[O][Mn]([O]C(C)=O)[O]c1c(cccc1OC)C=NCCN=C2 [Compound C32] | about twice as fast as C7 | – | 295.0 ± 31.9 | 90.1 ± 2.6 | 319 | 188 | fastest peroxidases | – | – | 34.2 ± 1.5 | 203 | – | – | – | – | about 16 turnovers | more protective than C43 | significant protection | complete protection | –
COc1cc(OC)c2c(c1)[O][Mn]([O]C(C)=O)[O]c1cc(OC)cc(OC)c1C=NCCN=C2 [Compound C35] | much lower catalase activity | – | 36.0 ± 8.0 | 10.5 ± 3.0 | 41 | 25 | undetectable activity | – | – | −0.1 ± 0.1 | 0 | – | – | – | – | – | not cytoprotective | – | – | –
COc1cccc2c1[O][Mn]([Cl])[O]c1c(cccc1OC)C=NCCN=C2 [Compound C40] | higher rate | – | – | – | 272 | 155 | fastest peroxidases | – | – | 32.9 ± 0.2 | 203 | – | – | – | protection | – | – | significant protection | complete protection | protects dopaminergic neurons
